# In the supplement of paper PMC6045584:
# ± gives the standard deviation of the averaged measurements.
# Compound: CN(Cc1cnc2nc(N)nc(N)c2n1)c1ccc(C(=O)N[C@@H](CCC(=O)O)C(=O)O)cc1 [METHOTREXATE]
# Assay: surviving fraction relative to DMSO-only wells; higher = less growth inhibition
# Conditions: 0.5 nM; exposure time: 5 days
# How it was run: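 Viability was determined by CellTiter-Glo luminescence, expressed as surviving fraction normalised to the median of DMSO-only wells. The cells were log-phase tumour cell lines seeded at 250–500 per well in 384-well plates and, after 24 hours, exposed continuously for five days to inhibitors at 0.5, 1, 5, 10, 50, 100, 500 and 1000 nM. Three screens per line were run, keeping only lines with replicate Pearson r >0.7 and median Z' >0.3.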
row,Test System,surviving fraction
1,22RV1 PROSTATE,1.06 ± 0.075
2,93VU HEADNECK,1.03 ± 0.099
3,143B BONE,1.06 ± 0.018
4,A549 LUNG,1.06 ± 0.07
5,ASKA SYNOVIAL,1.13 ± 0.14
6,BT20 BREAST,1.16 ± 0.083
7,BT549 BREAST,1.11 ± 0.16
8,CADOES1 SOFT TISSUE,0.973 ± 0.11
9,CAL51 BREAST,1.06 ± 0.039
10,CAL120 BREAST,0.961 ± 0.032
11,CASKI CERVIX,0.941 ± 0.045
12,CHLA90 AUTONOMIC GANGLIA,1.037 ± 0.006
13,CME SYNOVIAL,1.2 ± 0.098
14,COLO320DM LARGE INTESTINE,1.05 ± 0.045
15,DU4475 BREAST,0.815 ± 0.2
16,H23 LUNG,1.06 ± 0.054

row,Test System,surviving fraction
1,HCC38 BREAST,1.39 ± 0.32
2,HCC70 BREAST,1.04 ± 0.079
3,HCC78 LUNG,1 ± 0.064
4,HCC202 BREAST,1.3 ± 0.45
5,HCC1806 BREAST,1.13 ± 0.11
6,HCC1954 BREAST,1.26 ± 0.04
7,HCT15 LARGE INTESTINE,1.08 ± 0.046
8,HELA CERVIX,1.06 ± 0.044
9,HMLE3 BREAST,0.98 ± 0.057
10,HMT3552 BREAST,1.07 ± 0.063
11,HOS BONE,1.02 ± 0.036
12,HOSMNG BONE,0.844 ± 0.14
13,HS57T BREAST,1 ± 0.11
14,HS578T BREAST,1.04 ± 0.19
15,HSSYII SYNOVIAL,0.995 ± 0.049
16,HT1080 SOFT TISSUE,1.04 ± 0.021

# Same assay, conditions: 1 nM; exposure time: 5 days
row,Test System,surviving fraction
1,22RV1 PROSTATE,0.984 ± 0.11
2,93VU HEADNECK,1.08 ± 0.091
3,143B BONE,1.04 ± 0.016
4,A549 LUNG,1.06 ± 0.043
5,ASKA SYNOVIAL,1.07 ± 0.067
6,BT20 BREAST,1.15 ± 0.095
7,BT549 BREAST,1.04 ± 0.034
8,CADOES1 SOFT TISSUE,1.02 ± 0.14
9,CAL51 BREAST,1.02 ± 0.021
10,CAL120 BREAST,0.96 ± 0.086
11,CASKI CERVIX,0.892 ± 0.058
12,CHLA90 AUTONOMIC GANGLIA,1.01 ± 0.084
13,CME SYNOVIAL,1.12 ± 0.069
14,COLO320DM LARGE INTESTINE,1.04 ± 0.02
15,DU4475 BREAST,0.988 ± 0.11
16,H23 LUNG,0.996 ± 0.068

row,Test System,surviving fraction
1,HCC38 BREAST,1.22 ± 0.13
2,HCC70 BREAST,1.14 ± 0.092
3,HCC78 LUNG,0.847 ± 0.19
4,HCC202 BREAST,1.26 ± 0.38
5,HCC1806 BREAST,1.11 ± 0.098
6,HCC1954 BREAST,1.16 ± 0.024
7,HCT15 LARGE INTESTINE,1.05 ± 0.13
8,HELA CERVIX,1.027 ± 0.0067
9,HMLE3 BREAST,1.03 ± 0.13
10,HMT3552 BREAST,1 ± 0.036
11,HOS BONE,0.999 ± 0.024
12,HOSMNG BONE,0.864 ± 0.049
13,HS57T BREAST,1.03 ± 0.075
14,HS578T BREAST,1.17 ± 0.17
15,HSSYII SYNOVIAL,0.996 ± 0.048
16,HT1080 SOFT TISSUE,1.06 ± 0.029

# Same assay, conditions: 5 nM; exposure time: 5 days
row,Test System,surviving fraction
1,22RV1 PROSTATE,0.946 ± 0.15
2,93VU HEADNECK,1.16 ± 0.11
3,143B BONE,1.03 ± 0.041
4,A549 LUNG,1.04 ± 0.023
5,ASKA SYNOVIAL,1.13 ± 0.048
6,BT20 BREAST,1.12 ± 0.075
7,BT549 BREAST,1 ± 0.063
8,CADOES1 SOFT TISSUE,0.869 ± 0.052
9,CAL51 BREAST,1.02 ± 0.035
10,CAL120 BREAST,0.721 ± 0.027
11,CASKI CERVIX,0.946 ± 0.073
12,CHLA90 AUTONOMIC GANGLIA,1 ± 0.035
13,CME SYNOVIAL,0.755 ± 0.15
14,COLO320DM LARGE INTESTINE,1.09 ± 0.056
15,DU4475 BREAST,0.943 ± 0.16
16,H23 LUNG,1.01 ± 0.062

row,Test System,surviving fraction
1,HCC38 BREAST,1.37 ± 0.2
2,HCC70 BREAST,1.01 ± 0.09
3,HCC78 LUNG,0.914 ± 0.12
4,HCC202 BREAST,1.21 ± 0.097
5,HCC1806 BREAST,0.503 ± 0.063
6,HCC1954 BREAST,1.42 ± 0.14
7,HCT15 LARGE INTESTINE,1.04 ± 0.13
8,HELA CERVIX,1.03 ± 0.039
9,HMLE3 BREAST,1.07 ± 0.046
10,HMT3552 BREAST,1.04 ± 0.069
11,HOS BONE,0.252 ± 0.018
12,HOSMNG BONE,0.84 ± 0.047
13,HS57T BREAST,1.03 ± 0.032
14,HS578T BREAST,1.19 ± 0.2
15,HSSYII SYNOVIAL,1 ± 0.051
16,HT1080 SOFT TISSUE,1.02 ± 0.04

# Same assay, conditions: 10 nM; exposure time: 5 days
row,Test System,surviving fraction
1,22RV1 PROSTATE,0.964 ± 0.12
2,93VU HEADNECK,1.18 ± 0.063
3,143B BONE,0.471 ± 0.022
4,A549 LUNG,1.06 ± 0.036
5,ASKA SYNOVIAL,1.08 ± 0.083
6,BT20 BREAST,1.1 ± 0.087
7,BT549 BREAST,1.03 ± 0.11
8,CADOES1 SOFT TISSUE,0.672 ± 0.12
9,CAL51 BREAST,0.962 ± 0.052
10,CAL120 BREAST,0.31 ± 0.026
11,CASKI CERVIX,0.967 ± 0.031
12,CHLA90 AUTONOMIC GANGLIA,0.995 ± 0.037
13,CME SYNOVIAL,0.558 ± 0.062
14,COLO320DM LARGE INTESTINE,0.648 ± 0.066
15,DU4475 BREAST,0.933 ± 0.11
16,H23 LUNG,0.461 ± 0.084

row,Test System,surviving fraction
1,HCC38 BREAST,1.43 ± 0.15
2,HCC70 BREAST,1.12 ± 0.046
3,HCC78 LUNG,0.831 ± 0.13
4,HCC202 BREAST,1 ± 0.25
5,HCC1806 BREAST,0.445 ± 0.03
6,HCC1954 BREAST,1.3 ± 0.18
7,HCT15 LARGE INTESTINE,0.749 ± 0.18
8,HELA CERVIX,1.02 ± 0.018
9,HMLE3 BREAST,0.985 ± 0.037
10,HMT3552 BREAST,1.03 ± 0.051
11,HOS BONE,0.223 ± 0.0095
12,HOSMNG BONE,0.248 ± 0.019
13,HS57T BREAST,0.985 ± 0.12
14,HS578T BREAST,1.15 ± 0.058
15,HSSYII SYNOVIAL,0.969 ± 0.029
16,HT1080 SOFT TISSUE,0.493 ± 0.043
